Columns and labels:
[1] = rat, in vivo
venous plasma K^+ [2] = assay: Venous plasma K^+ levels before and after treadmill exercise; format: in vivo, Wistar Kioto male rats; conditions: for K^+ values 30 minutes after the end of the administration: 0.4 mg/kg/day (complex 2 3 mg/kg/day), 6 mg/kg/day (complex 3 50 mg/kg/day); for levels of K^+ of the animals that did not respond to treatment: up to 100 minutes after the end of the effort
Method: (§1) Wistar Kioto male rats weighing 350 g were divided into nine groups of eight animals each (numbered 1 to 8 for each test group) and were treated with amounts of complex 1 equal to 20 µg/kg/day or 40 µg/kg/day of noncomplexed active ingredient, of complex 2 equal to 0.4 mg/kg/day of noncomplexed active ingredient and of complex 3 equal to 6 mg/kg/day of noncomplexed active ingredient, orally with an endogastric tube for 30 days, during which the animals were exercised and tested. The tested doses were the minimum ones required to restore blood K^+ levels after exercise. • Placebo group treated with physiological solution enriched with hydroxypropyl-β-cyclodextrin; • Group treated with 20 µg/kg/day of 6-[1-piperidinyl]pyrimidine-2,4-diamine-3-oxide; • Group treated with […]/day of 6-[1-piperidinyl]pyrimidine-2,4-diamine-3-oxide; • Group treated with 180 µg/kg/day of complex 1; • Group treated with 360 µg/kg/day of complex 1; • Group treated with 0.4 mg/kg/day of [±]-N-cyano-N-4-pyridinyl-N-[1,2,2-trimethylpropyl]-guanidine; • Group treated with 3 mg/kg/day of complex 2; • Group treated with 6 mg/kg/day of N-[5-sulfamoyl-1,3,4-thiadiazol-2-yl]acetamide; • Group treated with 50 mg/kg/day of complex 3.
(§2) Levels of venous plasma K^+ taken from the femoral vein before and after exercise were also measured once a week per rat in animals anesthetized with chloral hydrate at a dose of 0.5 g/kg.

venous plasma K^+ [3] = assay: as above; format: in vivo, Wistar Kioto male rats; conditions: 5 animals per group; up to 100 minutes after the end of the effort; complex 1 180 µg/kg/day, noncomplexed 20 µg/kg/day
Wistar Kioto male rats = assay: Treadmill exercise: average duration of effort and recovery times after effort; format: in vivo; conditions: for average duration of the effort on the treadmill: after day 14 of treatment, oral by endogastric tube for 30 days; for average duration of the effort on the treadmill / Average recovery times after effort: versus placebo; for effort lasting (duration of the repeated effort on a treadmill) / rats able to sustain the effort on a treadmill already 30 minutes after suspending their exercise / time after which the remaining rats were able to repeat the effort: day 30; for effort lasting (duration of the repeated effort on a treadmill): effort repeated 30 minutes after end of exercise; for effort lasting (duration of the repeated effort on a treadmill) / time after which the remaining rats were able to repeat the effort: same doses as E4; for rats able to sustain the effort on a treadmill already 30 minutes after suspending their exercise: oral, complex 1 360 µg/kg/day, 0.4 mg/kg/day (complex 2 3 mg/kg/day), 6 mg/kg/day (complex 3 50 mg/kg/day); for time after which the remaining rats were able to repeat the effort: rats not able to repeat at 30 minutes; for Average recovery times after effort: day 30 of treatment
Method: as §1, §2
Each test group was subjected to daily trials at an initial speed of 15 m/min. In the second week, the speed was increased to 25 m/min, in the third week it was raised to 35 m/min, and in the fourth week it was increased to 45 m/min. Administration was performed in the morning.
The treadmill was equipped with a sensor which was sensitive to the weight of the rat, set to a generated weight force of 60 g/30 sec, and inserted in the rear wall of the time measurement chamber.

[4] = Undesirable effects: hypotension (pressure measured with flow meter); parameters: species or system rats; conditions: rat, in vivo
Method: Pressure measurements were made by means of a T206 dual-channel flow meter by Transonic System Inc (Ithaca, NY, USA). In the control animals not subjected to stress or pharmacological treatments, pressure was 91±7 mm Hg (N=56 rats). The pressure values of the animals in our test groups prior to the beginning of pharmacological treatment were between 85 mm Hg and 105 mm Hg. The pressures were measured in the morning, at rest, prior to administration. […] The observed variations remained constant to the end of the treatment. […] The pressure values used to plot the chart refer to the values from day 21 to day 30 of treatment (Chart 4). [formula]

animal models = conditions: doses of 1.5-5 mg/day, noncomplexed form; cited from earlier work
[5] = test system: patients affected by hypokalemias; conditions: guanidine 25 mg/day or more, acetamide 100 and 500 mg/day; cited from earlier work
[6] = animals that responded to treatment
[7] = animals that responded to treatment, same doses as E13

Q: For `Nc1cc(N2CCCCC2)nc(N)[n+]1[O-]` [6-[1-piperidinyl]pyrimidine-2,4-diamine-3-oxide], which “average rate increase (heart rate)” value [1] is on record?
A: 10±2%

Q: And the “values of K^+ 30 minutes after the end of the effort” value (venous plasma K^+ [2])?
A: 5.2±2 mEq/l

Q: And the “levels of venous K^+ after 100 minutes” value (venous plasma K^+ [2]; after the end of the effort)?
A: 4.5±1 mEq/l

Q: And the “values of K^+ after 60 minutes” value (venous plasma K^+ [2]; after the end of the effort)?
A: 4.2±1 mEq/l

Q: And the “K^+ levels of the animals that did not respond to the treatment” value (venous plasma K^+ [3])?
A: lower than 3 mEq/l

Q: And the “average duration of the effort on the treadmill” value (Wistar Kioto male rats)?
A: significantly longer

Q: And the “effort lasting (duration of the repeated effort on a treadmill)” value (Wistar Kioto male rats)?
A: 7.2 ± 1 min

Q: And the “rats able to sustain the effort on a treadmill already 30 minutes after suspending their exercise” value (Wistar Kioto male rats)?
A: 6 rats out of 8

Q: And the “time after which the remaining rats were able to repeat the effort” value (Wistar Kioto male rats)?
A: 90 min

Q: What about the “rats that responded to the treatment in terms of both functional and blood parameters” value (Wistar Kioto male rats; low dose: complex 1 180 µg/kg/day, noncomplexed 20 µg/kg/day) of the same molecule?
A: 3 rats out of 8

Q: What about the “Average recovery times after effort” value (Wistar Kioto male rats) of the same molecule?
A: reduced significantly

Q: What about the “reduction in average pressure” value [4] of the same molecule?
A: 8%

Q: What about the “effect on muscular weakness and muscular invalidity” value (animal models) of the same molecule?
A: capable of preventing muscular weakness and muscular invalidity

Q: With `CC(=O)Nc1nnc(S(N)(=O)=O)s1` [N-[5-sulfamoyl-1,3,4-thiadiazol-2-yl]acetamide] as the molecule, how does the “average rate increase (heart rate)” value [1] read?
A: 9±2%

Q: What about the “K^+ values 30 minutes after the end of the administration” value (venous plasma K^+ [2]; [6]) of the same molecule?
A: 6.2±2 mEq/l

Q: And the “K^+ values after 60 minutes” value (venous plasma K^+ [2]; [7])?
A: 5.8±1 mEq/l

Q: And the “levels of venous K^+ after 100 minutes” value (venous plasma K^+ [2]; [7])?
A: 5.6±1 mEq/l

Q: What about the “levels of K^+ of the animals that did not respond to treatment” value (venous plasma K^+ [2]; same doses as E13) of the same molecule?
A: below 3 mEq/l

Q: And the “effect on muscular weakness, paralysis attacks and symptoms” value [5]?
A: useful in reducing symptoms and muscular invalidity caused by exercise

Q: What about the “average duration of the effort on the treadmill” value (Wistar Kioto male rats) of the same molecule?
A: significantly longer

Q: And the “effort lasting (duration of the repeated effort on a treadmill)” value (Wistar Kioto male rats)?
A: 7 ± 2 min

Q: And the “rats able to sustain the effort on a treadmill already 30 minutes after suspending their exercise” value (Wistar Kioto male rats)?
A: 4 rats out of 8

Q: And the “time after which the remaining rats were able to repeat the effort” value (Wistar Kioto male rats)?
A: 80 min

Q: And the “Average recovery times after effort” value (Wistar Kioto male rats)?
A: reduced significantly

Q: What about the “reduction in average pressure” value [4] of the same molecule?
A: 15%

Q: What does the source list for “[±]-N-cyano-N-4-pyridinyl-N-[1,2,2-trimethylpropyl]-guanidine”?
A: average rate increase (heart rate) [1]: 14±2%; K^+ values 30 minutes after the end of the administration (venous plasma K^+ [2]; [6]): 5.2±2 mEq/l; K^+ values after 60 minutes (venous plasma K^+ [2]; [7]): 4.8±1 mEq/l; levels of venous K^+ after 100 minutes (venous plasma K^+ [2]; [7]): 4.6±1 mEq/l; levels of K^+ of the animals that did not respond to treatment (venous plasma K^+ [2]; same doses as E13): below 3 mEq/l; effect on muscular weakness, paralysis attacks and symptoms [5]: capable of reducing muscular weakness and the frequency of paralysis attacks; average duration of the effort on the treadmill (Wistar Kioto male rats): significantly longer; effort lasting (duration of the repeated effort on a treadmill) (Wistar Kioto male rats): 7.4 ± 1 min; rats able to sustain the effort on a treadmill already 30 minutes after suspending their exercise (Wistar Kioto male rats): 5 rats out of 8; time after which the remaining rats were able to repeat the effort (Wistar Kioto male rats): 70 min; Average recovery times after effort (Wistar Kioto male rats): reduced significantly; reduction in average pressure [4]: 13%
